Data taken from patent publication US5418236A, “Anxiolytic aroyl piperidinyl and piperazinylacyl pyrroles” (Ortho Pharmaceutical Corporation, priority 1993, dated 1995).
Read-outs that look alike come from different tables or passages of the source. Blank lines part the entries; values can stand above or below the compound they belong to.

What was measured:
[1] = target: T1, 5-HT1A receptor (Rattus norvegicus, UniProt P19327); assay: 5-HT1A assay (competitive binding, 3H-8-hydroxy-DPAT, cerebral cortex P2 fraction); parameters: species or system male, Wistar rats
T1 construct: P2 fraction (synaptosomal membranes) from the cerebral cortex of male, Wistar rats; from tissue; host or cells: cerebral cortex of male Wistar rats, P2 fraction (synaptosomal membranes)
T1 sequence (P19327 1-422): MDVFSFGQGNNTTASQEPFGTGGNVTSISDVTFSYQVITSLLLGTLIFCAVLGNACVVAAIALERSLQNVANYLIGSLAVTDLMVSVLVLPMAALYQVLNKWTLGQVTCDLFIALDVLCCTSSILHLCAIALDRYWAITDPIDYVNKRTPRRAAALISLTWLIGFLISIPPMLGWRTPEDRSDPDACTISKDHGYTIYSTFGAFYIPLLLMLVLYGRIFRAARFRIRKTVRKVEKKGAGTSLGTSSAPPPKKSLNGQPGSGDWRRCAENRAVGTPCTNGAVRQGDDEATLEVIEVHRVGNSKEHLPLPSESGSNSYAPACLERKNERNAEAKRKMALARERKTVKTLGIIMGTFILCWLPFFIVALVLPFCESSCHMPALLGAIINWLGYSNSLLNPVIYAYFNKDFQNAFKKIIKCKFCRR
Procedure: The 5-HT1A assay used a P2 fraction (synaptosomal membranes) from the cerebral cortex of male, Wistar rats. The ligand ^3 H-8-hydroxy-DPAT was used in competitive binding experiments at a concentration of 3 nM, and 1 mM serotonin as a blank determinant. Incubation was in 3 mM potassium phosphate buffer for 20 min at 25° C.
The data from each assay were analyzed by calculating the percent inhibition of the binding of the tritiated ligands by given concentrations of the test compound. Ki values, where given, were obtained from the logit analysis of concentration-inhibition curves.

[2] = target: D2 receptor (Rattus norvegicus, UniProt P61169); assay: binding to the D2 receptor; conditions: 1 μM
[3] = target: 5-HT2 receptor (Rattus norvegicus, UniProt P14842); assay: binding to the 5-HT2 receptor; conditions: 1 μM
[4] = test system: α1 receptor; assay: binding to the α1 receptor; conditions: for inhibition in binding to the α1 receptor: 1 μM
[5] = test system: Male rats; assay: anxiolytic activity: release of behavior suppressed by punishment (Vogel conflict test); assay type: in vivo
Procedure: The anxiolytic activity of selected compounds of the invention was assessed by determining their ability to release (disinhibit) behavior that had been suppressed by punishment (Vogel, J. R. et al. Psychopharmacology 1971, 21, 1). Male rats were deprived of water for 48 hours and were deprived of food for 24 hours prior to testing. After the first 24 hours of water deprivation, they were placed in the conflict chamber for a training period; wherein, they were allowed 200 unpunished licks from a bottle containing tap water. The experiment was run the next day. At the expected time of peak activity, the animals were placed in the chamber and allowed access to tap water. […] Their first lick initiates a 3-min test session. Subsequently,every 20th lick was punished by a 0.2-s shock delivered via the stainless-steel drinking-tube. Vehicle-treated control animals generally were willing to accept a median number of 3 to 8 shocks per test session. […] The Wilcoxon rank-sum test (Mann-WhitneyU-test) was used to test for an increase (p<0.05, 1-tailed) in the median number of shocks in drug-treated groups, compared to a concurrently run vehicle-treated group. The biological assay is considered to be valid if the effects of a known anxiolytic (positive control) are detected, within the same experiment. […]

[6] = target: D2 receptor (Homo sapiens, UniProt P14416); conditions: background statement; cited from earlier work
[7] = 3H-8-hydroxy-DPAT 3 nM, 20 min, 25° C., rat cerebral cortex P2 fraction, read-out: Ki (5HT1A)
[8] = 3H-8-hydroxy-DPAT 3 nM, 20 min, 25° C., rat cerebral cortex P2 fraction

Sequence of D2 receptor (Rattus norvegicus, UniProt P61169) (P61169 whole entry): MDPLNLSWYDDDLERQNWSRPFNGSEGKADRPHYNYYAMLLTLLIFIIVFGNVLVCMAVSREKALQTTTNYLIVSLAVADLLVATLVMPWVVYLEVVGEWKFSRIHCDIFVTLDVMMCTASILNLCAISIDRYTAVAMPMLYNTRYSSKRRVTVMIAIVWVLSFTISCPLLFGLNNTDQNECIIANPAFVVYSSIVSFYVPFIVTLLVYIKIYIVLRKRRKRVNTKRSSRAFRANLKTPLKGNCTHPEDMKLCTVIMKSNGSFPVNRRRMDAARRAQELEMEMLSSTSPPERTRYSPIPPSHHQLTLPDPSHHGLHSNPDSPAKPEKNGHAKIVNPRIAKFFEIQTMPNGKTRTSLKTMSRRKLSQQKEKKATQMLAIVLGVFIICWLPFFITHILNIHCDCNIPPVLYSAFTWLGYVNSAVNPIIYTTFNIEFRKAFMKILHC
Sequence of 5-HT2 receptor (P14842 whole entry): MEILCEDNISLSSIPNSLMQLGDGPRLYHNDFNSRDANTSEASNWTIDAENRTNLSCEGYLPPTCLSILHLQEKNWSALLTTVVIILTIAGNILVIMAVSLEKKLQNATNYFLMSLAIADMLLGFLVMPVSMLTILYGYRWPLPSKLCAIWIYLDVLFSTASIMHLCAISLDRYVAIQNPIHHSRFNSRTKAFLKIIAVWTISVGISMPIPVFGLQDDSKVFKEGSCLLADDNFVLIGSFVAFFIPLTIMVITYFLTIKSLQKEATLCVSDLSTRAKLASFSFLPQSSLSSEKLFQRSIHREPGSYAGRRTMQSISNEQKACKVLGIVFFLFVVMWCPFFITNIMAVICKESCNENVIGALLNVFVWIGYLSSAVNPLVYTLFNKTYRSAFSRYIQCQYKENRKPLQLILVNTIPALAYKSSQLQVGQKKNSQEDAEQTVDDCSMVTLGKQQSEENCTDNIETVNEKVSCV
Sequence of D2 receptor (Homo sapiens, UniProt P14416) (P14416 whole entry): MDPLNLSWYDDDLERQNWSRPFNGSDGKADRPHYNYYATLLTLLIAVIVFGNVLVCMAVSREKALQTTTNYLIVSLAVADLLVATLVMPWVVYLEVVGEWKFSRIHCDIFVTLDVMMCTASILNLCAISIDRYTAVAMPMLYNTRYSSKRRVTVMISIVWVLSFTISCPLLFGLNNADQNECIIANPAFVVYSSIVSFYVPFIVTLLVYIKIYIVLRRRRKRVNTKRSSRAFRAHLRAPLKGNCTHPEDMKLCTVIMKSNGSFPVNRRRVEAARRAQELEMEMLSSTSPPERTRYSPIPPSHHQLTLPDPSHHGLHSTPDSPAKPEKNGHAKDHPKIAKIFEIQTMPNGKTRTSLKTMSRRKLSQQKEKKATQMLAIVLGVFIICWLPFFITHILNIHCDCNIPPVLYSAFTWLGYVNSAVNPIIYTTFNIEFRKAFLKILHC

SMILES: Cn1cc(C(=O)CN2CCN(c3ncccn3)CC2)cc1C(=O)c1ccc([N+](=O)[O-])cc1 [Example 5, 1-[1-Methyl-5-(4-nitrobenzoyl)-1H-pyrrol-3-yl]-2-[4-(2-pyrimidinyl)-1-piperazinyl]ethanone]
Ki [1, 7]: 7.7 nM
inhibition in binding to the D2 receptor [2]: no inhibition
inhibition in binding to the 5-HT2 receptor [3]: no inhibition
inhibition in binding to the α1 receptor [4]: no inhibition
change in responding ([5]; 5 mg/kg IP): 240%

inhibition at 1 µM [1, 8]: 24%
SMILES: Cc1c(C(=O)CN2CCN(c3ncccn3)CC2)c(C)n(C)c1C(=O)c1ccc(Cl)cc1 [Example 6-1]

inhibition at 1 µM [1, 8]: 94%
SMILES: Cn1cc(C(=O)CN2CCN(c3ccccn3)CC2)cc1C(=O)c1ccc(Cl)cc1 [Example 6-2]

inhibition at 1 µM [1, 8]: 83%
SMILES: CC(C)Oc1ccccc1N1CCN(CC(=O)c2cc(C(=O)c3ccccc3Cl)n(C)c2)CC1 [Example 6-3]

inhibition at 1 µM [1, 8]: 91%
SMILES: Cn1cc(C(=O)CN2CCN(c3ncccn3)CC2)cc1C(=O)c1ccc(F)cc1 [Example 6-4]

inhibition at 1 µM [1, 8]: 67%
SMILES: Cn1cc(C(=O)CN2CCN(c3cccc4ccccc34)CC2)cc1C(=O)c1ccc(Cl)cc1 [Example 6-5]

Ki [1, 7]: 6 nM
SMILES: Cc1c(C(=O)CCCCN2CCN(c3ncccn3)CC2)c(C)n(C)c1C(=O)c1ccc(Cl)cc1 [Example 6-6]

SMILES: Cl.Cn1cc(C(=O)CN2CCC(O)(c3ccc(Cl)cc3)CC2)cc1C(=O)c1ccccc1Cl [Example 7, 1-[5-(2-Chlorobenzoyl)-1-methyl-1H-pyrrol-3-yl]-2-[4-(4-chlorophenyl)-4-hydroxy-1-piperidinyl]ethanone Hydrochloride]
Ki [1]: 15 nM
inhibition in binding to the D2 receptor [2]: no inhibition
inhibition in binding to the 5-HT2 receptor [3]: no inhibition
inhibition in binding to the α1 receptor [4]: no inhibition
change in responding ([5]; 10 mg/kg IP): 180%

inhibition at 1 µM [1, 8]: 69%
SMILES: Cn1cc(C(=O)CN2CCC(c3ccccc3)CC2)cc1C(=O)c1ccc(Cl)cc1 [Example 8, 1-[5-(4-chlorobenzoyl)-1-methyl-1H-pyrrol-3-yl]-2-(4-phenylpiperidinyl)-ethanone]

SMILES: COc1cccc(OC)c1OCCNCC1COc2ccccc2O1 (stereo not drawn) [WB4101, reference compound]
Ki [1, 7]: 0.32 nM

SMILES: O=C1CC2(CCCC2)CC(=O)N1CCCCN1CCN(c2ncccn2)CC1 [buspirone]
Ki [4]: 138 nM
binding to the D2 receptor [6]: binds to the D2 receptor

SMILES: Cc1ccc(N(CC2=NCCN2)c2cccc(O)c2)cc1 [phentolamine, reference compound]
Ki [1]: 59 nM
